Paper PMC11020070, “Discovery of Protease-Activated Receptor 4 (PAR4)-Tethered Ligand Antagonists Using Ultralarge Virtual Screening” (ACS Pharmacology & Translational Science, 2024)

Assays:
[1] = Modified microsomal clearance assay with or without NADPH, human liver microsomes; format: in vitro ADME; details: for Estimated % Contribution to Metabolism Human CYPs/FMOs / Estimated % Contribution to Metabolism Human Esterases: HLM, from AUC with/without NADPH vs buffer only; for CLint scaled at 1 µM: human, liver microsomes, pH 7.4, HLM, reaction initiated by test compound
Experimental: It is of note that the experimental design for the initial round of microsomal clearance assays adds a test compound to microsomes before the reaction is started by the addition of nicotinamide adenine dinucleotide phosphate (NADPH). This design assumes that the major contributing drug-metabolizing enzymes are cytochrome P450s (CYPs). To investigate this further, the experimental design was modified where the reaction was initiated by the addition of a test compound and was carried out in the presence or absence of NADPH. […] By comparison of the measured intrinsic clearance in the presence and absence of NADPH, the contribution of non-CYP450 drug-metabolizing enzymes can be estimated.
(§1) Mammalian liver microsomes include CYPs, flavin monooxygenases (FMOs), glucuronosyltransferases ([…]), and esterases as part of their enzyme composition. In the presence of NADPH, which serves as a cofactor for CYP- and FMO-dependent reactions, the observed activity can be attributed to these enzymes. Similarly, UGTs require the cofactor uridine diphosphate glucuronic acid (UDPGA). Therefore, when NADPH and UDPGA are absent, any reduction in the compound can be ascribed only to esterase activity or chemical instability. […] This is based on two factors: (1) the stability of the compounds in HP buffer, which is used in the platelet assays, and (2) the low probability of drug metabolism occurring within the platelets themselves. Together, these minimize the chance that any metabolites with distinct PAR4 potencies could confound the results. By comparing the area under the curve of the compound metabolized from the microsomal incubations in the presence or absence of NADPH to the corresponding area under the curve of the buffer-only incubation, the percent contribution of CYPs and FMOs and esterases were estimated (Table S1). The major contributing enzyme toward the metabolism of 12 is esterases in both the human (96%) and mouse (98%). In contrast, the metabolism of 31 was primarily driven by CYPs and FMOs in both HLM (80%) and MLM (88%).
In separate 96-well plates for each time point, a mixture of 0.1 M potassium phosphate-buffered (pH 7.4), 3 mM MgCl2, and 2.5 mg/mL microsomes were prewarmed at 37 °C for 5 min. Following the preincubation, a 1 μM test compound and 1 mM NADPH (for 3, 7, 15, 25, or 45 min time points) or buffer (for 0 min time point) were added to initiate the reaction. Under standard conditions, reactions were initiated with the addition of NADPH. To delineate the contribution of esterases, some experiments were initiated by the addition of substrate in the presence or absence of NADPH. Plates were incubated at 37 °C under ambient oxygenation. At the respective times, each plate’s reaction was precipitated by the addition of 2 volumes of ice-cold acetonitrile containing an internal standard (carbamazepine, 50 nM). The plates were centrifuged at 4000 rcf (4 °C) for 5 min. The resulting supernatants were transferred and diluted 1:1 (supernatant:water) into new 96-well plates in preparation for LC/MS/MS analysis. Each compound was assayed in triplicate within the same 96-well plate. The in vitro half-life (t1/2, min, eq 1), intrinsic clearance (CLint, mL/min/kg, eq 2), and subsequent predicted hepatic clearance (CLhep, mL/min/kg, eq 3) were determined employing the following equations [drawing 1] 1 [drawing 2] 2 [drawing 3] 3 The estimated percent contribution to metabolism was calculated from the percent substrate lost plots generated from metabolic incubations initiated with the addition of a test compound. Calculations compared the area under the curve (AUC) from conditions in the presence and absence of NADPH and buffer-only (control) conditions (eqs 4 and 5). AUC was calculated by using the trapezoidal method [drawing 4] 4 [drawing 5] 5
Clint (mL/min/kg) Estimated % Contribution to Metabolism
Compound Human Mouse Human Mouse +NADPH -NADPH +NADPH -NADPH CYPs/FMOs Esterases CYPs/FMOs Esterases […]

[2] = Buffer-only incubation (KPI or Tyrode's HP buffer), compound stability; format: physicochemical; details: potassium phosphate (KPI) or Tyrode's buffer (HP), no microsomes
Text: as §1
Supplem ental Fig ure S5 . Depletion of 12 over time in the presence (ν) or absence (λ) of NADPH. Incubations w e re carried out in the presence of human (A) or mouse (B) li ver microsomes or without microsomes but in either KPI (C) or HP (D) buffer. […] Error bars smaller than the symbols a re not visible. […]
Supplem ental Figure S6. […] Values a re expressed as percentage of compound remaining at ea ch time compared with time 0 min and represent the mean ± SD (n = 3). […]
Supplem ental Fig ure S7 . […] Values a re expressed as percentage of compound remaining at ea ch time co mpa red with time 0 min and represent the mean ± SD (n = 3). […]

Compound | Estimated % Contribution to Metabolism Human CYPs/FMOs [1] [%] | Estimated % Contribution to Metabolism Human Esterases [1] [%] | CLint scaled at 1 µM ([1]; +NADPH) [mL/min/kg] | CLint scaled at 1 µM ([1]; -NADPH) [mL/min/kg] | loss of compound over time in buffer only [2]
Cn1nc(C(=O)Nc2n[nH]c(-c3c(F)cccc3F)n2)cc1C1CC1 [Compound 12] | 4 | 96 | 642 | 352 | little loss of compound over time
O=C(Nc1nc[nH]n1)c1nn(-c2ccccc2)c2c1CCC2 [Compound 17] | 39 | 61 | 26.8 | 12.4 | little loss of compound over time
O=C(Nc1n[nH]c(-c2ccc(F)cc2F)n1)c1nn(-c2ccccc2)c2c1CCCC2 [Compound 31] | 80 | 20 | 144 | 15.6 | little loss of compound over time
